# Measurements published in patent US9701987B2, “Fermentation process for the production and control of pyruvate-derived products” (priority 2014, dated 2017).
# Like-named read-outs stand apart in the source and are kept apart here.
# Columns and labels:
# [1] = system: Clostridium autoethanogenum
# Text: A fermentation was started using the general fermentation process with gas and agitation were increased to minimize acetate and maximize ethanol production. Dilution rate and bacterial dilution rate were adjusted by day 4.0 to 2.0 day-^1 and 1.2 day-1, respectively. These values were maintained for the remainder of the fermentation.
# On day 14.1 the concentration of B1 in media was decreased to reduce the specific B1 feed rate with all other operational parameters being kept constant.
# It has been reported in the art that the limiting concentration of B1 for growth and acetate production is 6.5 μg/g cell produced.
# [2] = reported in the art; cited from earlier work
# [3] = system: Clostridium ljungdahlii; details: WO 2002/08438; cited from earlier work
# [4] = system: Clostridium autoethanogenum; assay: Example 3: fermentation with excess vitamin B5 from the start, effect on 2,3-BDO production; assay type: cell-based
# Description: The example above can be compared to results when excess B5 vitamin is present in the fermentation media throughout the fermentation. […] In this case the 2,3-BDO concentration reached 9 g/L with an ethanol:2,3-BDO ratio of 2:1 (FIG. 2), and a CO uptake of 9.4 mol/L/day (FIG. 3). The feed rate of B5 vitamin throughout the fermentation was >2000 μg/g-cell produced. During day 6.0 to 7.0 as the biomass and 2,3-BDO production flattened out the feed rate of B5 vitamin was 2011 μg/g-cell produced. The specific 2,3-BDO production rate was 1.2 g/day per g-biomass, the specific ethanol production rate was 2.4 g/day per g-biomass.
# [5] = system: Clostridium autoethanogenum; assay: Example 1: fermentation with vitamin B5 concentration increased during the run, effect on 2,3-BDO production; assay type: cell-based
# Description: This experiment was carried out according to the general fermentation process described above. […] Dilution rate and bacterial dilution rate were adjusted so that by day 5.0 these were 1.8 day^−1 and 0.85 day^−1, respectively.
# On day 8.1 the concentration of vitamin B5 in media was increased 10 fold with all other operational parameters remaining the same. During this time the biomass production rate dropped slightly so accordingly the vitamin B5 feed rate was increased just over tenfold to 2180 μg/g-cell produced. Following the increase in the vitamin B5 concentration, the specific 2,3-BDO production rate and concentration increased with other parameters remaining stable.
# This is a surprising result as it is only the specific 2,3-BDO production rate and the concentration of 2,3-BDO that increases while the production rate of other metabolites, e.g. ethanol and biomass remains the same.
# [6] = system: Clostridium autoethanogenum; assay: Example 5: fermentation with vitamin B7 concentration increased then reduced, effect on 2,3-BDO production; assay type: cell-based
# Description: In this example the impact of B7 on the production of 2,3-BDO was tested using a fermentation grown according to the general fermentation process. […] Dilution rate and bacterial dilution rate were adjusted so that by day 8.0 these were 1.8 day^−1 and 0.75 day^−1 respectively. […] The results achieved at that time are summarised below;
# On day 8.69 the concentration of B7 in media was increased 10 fold with all other operational parameters being kept constant. During this time the biomass production rate remained stable so the B7 feed rate was increased over tenfold to 980 μg/g cell produced. Following the increase in the B7 feed the specific 2,3-BDO production rate and the concentration of 2,3-BDO increased. The data obtained from days 13-14 are summarised below;
# As the 2,3-BDO concentration was reaching a peak (day 14.04) the B7 in the media was reduced 10 fold such that the specific B7 feed rate was reduced back to 90 μg/g cell produced.
# This is a surprising result as it is the specific 2,3-BDO production rate and the concentration of 2,3-BDO that increases rather than any other metabolite and or biomass.
# [7] = vitamin B1 feed rate 303 μg/g cell produced, day 10.0-14.0
# [8] = vitamin B1 feed rate decreased to 61 μg/g cell produced
# [9] = B5 vitamin feed rate 2011 μg/g-cell produced, day 6.0 to 7.0
# [10] = B5 vitamin feed rate >2000 μg/g-cell produced throughout the fermentation
# [11] = vitamin B5 feed rate 198 μg/g-cell produced, day 6.0-8.0
# [12] = vitamin B5 feed rate 2180 μg/g cell produced
# [13] = vitamin B7 feed rate 90 μg/g cell produced, before increase
# [14] = vitamin B7 feed rate 980 μg/g cell produced, days 13-14
# [15] = vitamin B7 reduced back to 90 μg/g cell produced (after day 14.04)
smiles,measurement,setting,value
"Cc1ncc(C[n+]2csc(CCO)c2C)c(N)n1.Cl.[Cl-] [vitamin B1, Thiamine hydrocloride]",effect of decreasing the B1 concentration on ethanol production,"[1]; B1 feed rate 303 to 61 μg/g cell produced, CO uptake constant",unaffected
same,"2,3-BDO concentration",[1]; [7],3.4 g/L
same,Biomass,[1]; [7],5.79 g/L
same,CO uptake,[1]; [7],8.0 mol/L/day
same,Ethanol concentration,[1]; [7],16.05 g/L
same,"Specific 2,3-BDO production rate",[1]; [7],"1.17 g 2,3-BDO/g biomass/day"
same,Specific Ethanol production rate,[1]; [7],5.54 g ethanol/g biomass/day
same,"2,3-BDO titre",[1]; [8],1.6 g/L
same,Biomass,[1]; [8],6.75 g/L
same,CO uptake,[1]; [8],8.0 mol/L/day
same,Ethanol concentration,[1]; [8],18.23 g/L
same,"Specific 2,3-BDO production rate",[1]; [8],"0.47 g 2,3-BDO/g biomass/day"
same,Specific Ethanol production rate,[1]; [8],5.4 g ethanol/g biomass/day
same,limiting concentration of B1 for growth and acetate production,[2],6.5 μg/g cell produced
"CC(C)(CO)[C@@H](O)C(=O)NCCC(=O)O [vitamin B5, Pantothenic acid]",vitamin B5 required for growth,[3],50 μg/g biomass produced
same,"Specific 2,3-BDO production rate",[4]; [9],1.2 g/day per g-biomass
same,Specific Ethanol production rate,[4]; [9],2.4 g/day per g-biomass
same,"2,3-BDO concentration",[4]; [10],9 g/L
same,CO uptake,[4]; [10],9.4 mol/L/day
same,"2,3-BDO concentration",[5]; [11],4.8 g/L
same,Acetate concentration,[5]; [11],7.75 g/L
same,CO uptake,[5]; [11],8.4 mol/L/day
same,Ethanol concentration,[5]; [11],18.69 g/L
same,"Specific 2,3-BDO production rate",[5]; [11],"0.81 g 2,3-BDO/g-biomass/day"
same,Specific Ethanol production rate,[5]; [11],3.17 g ethanol/g-biomass/day
same,Biomass,"[5]; vitamin B5 feed rate 198 μg/g-cell produced, stable period day 6.0-8.0",10.62 g/L
same,"2,3-BDO concentration",[5]; [12],7.0 g/L
same,CO uptake,[5]; [12],8.0 mol/L/day
same,Ethanol concentration,[5]; [12],19.49 g/L
same,"Specific 2,3-BDO production rate",[5]; [12],"1.32 g 2,3-BDO/g biomass/day"
same,Specific Ethanol production rate,[5]; [12],3.3 g ethanol/g biomass/day
same,Biomass,"[5]; vitamin B5 feed rate 2180 μg/g cell produced, after 10 fold increase on day 8.1",10.4 g/L
"O=C(O)CCCC[C@@H]1SC[C@@H]2NC(=O)N[C@@H]21 [vitamin B7, Biotin]",impact of increasing B7 on the specific ethanol production rate,[6]; B7 feed rate 90 to 980 μg/g cell produced,does not impact
same,"2,3-BDO concentration",[6]; [13],4.94 g/L
same,Acetate concentration,[6]; [13],8.13 g/L
same,Biomass,[6]; [13],9.42 g/L
same,CO uptake,[6]; [13],8.0 mol/L/day
same,Ethanol concentration,[6]; [13],15.63 g/L
same,"Specific 2,3-BDO production rate",[6]; [13],"1.19 g 2,3-BDO/g biomass/day"
same,Specific Ethanol production rate,[6]; [13],3.78 g ethanol/g biomass/day
same,"2,3-BDO concentration",[6]; [14],7.34 g/L
same,Biomass,[6]; [14],9.23 g/L
same,CO uptake,[6]; [14],7.6 mol/L/day
same,Ethanol concentration,[6]; [14],14.92 g/L
same,"Specific 2,3-BDO production rate",[6]; [14],"1.97 g 2,3-BDO/g biomass/day"
same,Specific Ethanol production rate,[6]; [14],3.85 g ethanol/g biomass/day
same,"2,3-BDO concentration",[6]; [15],4.76 g/L
same,Biomass,[6]; [15],10.53 g/L
same,CO uptake,[6]; [15],7.6 mol/L/day
same,Ethanol concentration,[6]; [15],15.70 g/L
same,"Specific 2,3-BDO production rate",[6]; [15],"1.1 g 2,3-BDO/g biomass/day"
same,Specific Ethanol production rate,[6]; [15],3.59 g ethanol/g biomass/day
